Assay results reported in patent US20150297509A1, “IMPLANTABLE DRUG DELIVERY COMPOSITIONS AND METHODS OF TREATMENT THEREOF” (BRAEBURN PHARMACEUTICALS BVBA SPRL, priority 2012, published 2015).
Where a name gives a salt, the structure may show the parent alone.

What was measured:
[1] = in vitro elution of raloxifene from TECOFLEX EG-80A polyurethane implants; format: physicochemical; settings: TECOFLEX EG-80A tubing, 88% API, 10% croscarmellose sodium, 2% stearic acid, about 250 mg raloxifene, 800 mL 0.9% saline at 37° C, weekly exchanges, HPLC, up to 20 weeks
Method: (§1) The follow general procedure was followed for the manufacture of API-containing implants.
(§2) Sterilization was accomplished by gamma irradiation of the implants.
The drug blend was 88% API, 10% sorption enhancer, and 2% lubricant. […] A total of about 250 mg raloxifene were loaded into the implant with 10% croscarmellose sodium and 2% stearic acid.

[2] = in vitro elution of lidocaine from TECOFLEX EG-93A polyurethane implants; format: physicochemical; settings: TECOFLEX EG-93A tubing, about 180 mg pure lidocaine without excipients, 300 mL 0.9% saline at 37° C, daily exchanges, up to 8 days; for release of drug from the implant (in vitro elution): HPLC
Method: as §1, §2
A total of about 180 mg pure (100%) lidocaine were loaded into the implant without any excipients (without any sorption enhancer or lubricant).

[3] = oral dosage form, target oral daily dose about 60 mg; cited from earlier work

Structure (SMILES): O=C(c1ccc(OCCN2CCCCC2)cc1)c1c(-c2ccc(O)cc2)sc2cc(O)ccc12 [raloxifene free base, [6-hydroxy-2-(4-hydroxyphenyl)-benzothiophen-3-yl]-[4-[2-(1-piperidyl)ethoxy]phenyl]-methanone]
- release of drug from the implant (in vitro elution) [1]: readily released

Structure (SMILES): CCN(CC)CC(=O)Nc1c(C)cccc1C [lidocaine free base]
- release of drug from the implant (in vitro elution) [2]: readily released
- in vitro elution rate from the implant [2]: more than 10 mg/day

Structure (SMILES): O=C(c1ccc(OCCN2CCCCC2)cc1)c1c(-c2ccc(O)cc2)sc2cc(O)ccc12 [raloxifene hydrochloride]
- release of drug from the implant (in vitro elution) [1]: No drug was released
- release of drug from the implant (in vitro elution) ([1]; listed as raloxifene HCI): no drug was released
- oral bioavailability [3]: ~2%

Structure (SMILES): CCN(CC)CC(=O)Nc1c(C)cccc1C [lidocaine hydrochloride]
- release of drug from the implant (in vitro elution) [2]: No drug was released
- release of drug from the implant (in vitro elution) ([2]; listed as lidocaine HCl): no drug was released
